Measured values published in patent US8987201B2, “Black bear parathyroid hormone and methods of using black bear parathyroid hormone” (Michigan Technological University, priority 2009, dated 2015).
Marks after values point to notes of the source that are not given here.

What was measured:
[1] = system: ovariectomized (OVX) Sprague-Dawley rats; experiment: In vivo rat OVX dose response study: bone μCT and bone strength
Method: Ninety female, 3-month old Sprague-Dawley rats were obtained. Eighty (80) of the rats were ovariectomized (OVX) and ten (10) underwent a sham OVX procedure (sham OVX) in which the ovaries were left in the animal. The OVX animals were randomly assigned into groups of ten for further experiments.
Following the actual or sham OVX procedure, all animals were untreated for 6 weeks to allow bone loss. After the 6 week period of bone loss, groups of animals were injected for a six- or eight-week period (daily for five days per week) with vehicle (saline) or 3, 10, or 30 μg/kg bear or human PTH1-34. […] The sham OVX group as well as one group of actual OVX rats were euthanized at six weeks while the remaining animals were euthanized at fourteen weeks following the OVX procedure. Samples were obtained from the euthanized animals for further analysis.
Three-dimensional images of bones were obtained using micro-computed tomography (μCT). The three-dimensional images were then used to quantify bone parameters, as explained below. The measurements were conducted on a 1.6 mm-thick region that begins at a position 2 mm from the growth plate (FIG. 8). Bone samples were obtained and analyzed from sham (FIG. 9A, “Sham OVX 6 weeks”) and actual (FIG. 9B, “OVX 6 weeks”) OVX rats that were euthanized at six weeks after the procedure, as well as a group of actual OVX rats that were euthanized at fourteen weeks after the procedure (FIG. 9C, “OVX 14 weeks”). The rats in the OVX 14 group were given injections of vehicle (saline) for 8 weeks following the 6 week bone loss period, in parallel with the PTH1-34 injections for eight weeks (FIGS. 9D, 9E, and 9F). The samples shown in FIGS. 9D, 9E, and 9F were obtained from rats that were injected for eight weeks following the 6 week bone loss period, with 3, 10, or 30 μg/kg black bear PTH1-34 (“bbPTH”), respectively.

Male Swiss-Webster mice = experiment: Cortical bone mineral content (ash fraction) and geometrical properties of the femur; type: in vivo, mouse; settings: femoral midshaft, 2.5 nmol/kg s.c., 8 weeks, normalized by body mass, SD in parentheses
Text: All handling procedures and experiments were approved by the Michigan Technological University Institutional Animal Care and Use Committees. Male Swiss-Webster mice were obtained from a commercial breeder (Harlan, Indianapolis, Ind.). All animals were maintained on a 12-h light/12-h dark cycle, and were permitted free access to water and food containing 0.95% calcium (Purina Rodent Diet #5001).
In the first experiment, 11 wk old mice received daily (5 days/week) subcutaneous injections of 2.5 nmol/kg PTH 1-34 (hPTH 1-34 or bbPTH 1-34) or acidic saline vehicle (0.15 M NaCl+0.001 N HCl) for 8 weeks (n=10 mice/group). In the second experiment, 12 wk old mice received daily (5 days/week) subcutaneous injections of 2.5 nmol/kg PTH 1-84 (hPTH 1-84 or bbPTH 1-84) or acidic saline vehicle for 8 weeks (n=10 mice/group). All PTH- and vehicle-treated animals received subcutaneous injections of calcein at a dosage of 10 mg/kg on days 12 and 3 before death to label mineralizing bone surfaces. Twenty-four hours following the last treatment injection, mice were sacrificed by carbon dioxide asphyxiation. Right femurs were fixed in 10% neutral buffered formalin. Left femurs were wrapped in 0.15M saline soaked gauze and stored at −20 deg C. Left tibias were stored in 70% ethanol at 4 deg C.
Following the bending test, the left femoral diaphyses were ashed in a furnace to determine mineral content (ash fraction). Right femoral diaphyses were embedded in methyl methacrylate and sectioned with a diamond saw to expose the midshaft cross-section. Images of the midshaft cross-sections were captured using a digital camera (Spot Insight QE, Diagnostic Instruments Inc., Sterling Heights, Mich.), and Scion Image analysis software (Scion Corporation, Frederick, Md.) was used to calculate the periosteal area (Ps.Ar), cortical area (Ct.Ar), and endosteal area (Es.Ar) for each sample. Cortical bone thickness (Ct.Th) was calculated in 0.1 mm increments for each anatomical quadrant and for the entire cross-section using image analysis software (Bioquant Osteo, Nashville, Tenn.). Thin sections from the midshaft of the right femur were ground to a thickness of 50 μm and mounted on glass slides. Images of calcein labels were captured at 100× magnification and periosteal and endosteal mineral apposition rates (Ps.MAR and Es.MAR, respectively) and mineralizing surfaces (Ps.MS/BS and Es.MS/MS) were quantified (Bioquant) for each femur.
All bone geometrical, architectural, and mineral properties were normalized by body mass to account for potential variation in animal size (31-33). Trabecular bone properties quantified by micro-computed tomography were compared by ANOVA between vehicle, bear, and human PTH-treated mice within each study (PTH 1-34 or PTH 1-84). The microCT parameters were not directly compared between the PTH 1-34 and PTH 1-84 studies because analyses were conducted on different microCT machines. For all other bone properties, all six experimental groups (from both the PTH 1-34 and PTH 1-84 studies) were compared with ANOVA and Fisher's PLSD. A significance of p<0.05 was used for all comparisons.

## human PTH 1-34 [hPTH 1-34]
[1]; OVX rats
  average thickness of the trabecular struts (Tb.Th) compared to vehicle-treated controls: significantly (p<0.05) increased
  increasing tibial cortical bone volume (BV), human vs bear: better than bear PTH1-34
  trabecular bone mineralization (M.Dn) vs vehicle (saline) alone: significantly (p<0.05) greater trabecular bone mineralization
[1]; OVX rats, 30 μg/kg
  bone mineral apparent density, hPTH vs bbPTH: significantly higher (p<0.05)
[1]; OVX rats, 3, 10, or 30 μg/kg
  bone mineral apparent density (App.Dn) vs vehicle (saline) alone: significantly higher (p<0.05)
  bone volume as a fraction of total volume (BV/TV) vs vehicle (saline) alone: significantly (p<0.05) greater bone volume fraction than treatment with vehicle (saline) alone at all three levels tested
[1]; OVX rats, highest dose of 30 μg/kg
  bone volume fraction, human PTH vs bear PTH: significantly (p<0.05) greater
[1]; OVX rats, middle (10 μg/kg) and higher doses (30 μg/kg)
  tibial cortical porosity relative to vehicle (saline) alone: significantly (p<0.05) decreased
[1]; OVX rats, only higher doses (30 μg/kg)
  femoral cortical bone strength relative to vehicle-treated controls: significant (p<0.05) increases
Male Swiss-Webster mice
  Ct.Ar: 30.7 (3.0) mm^2/kg
  Ct.Th: 2.22 (0.20)^b mm/kg
  Es.Ar: 24.7 (3.7) mm^2/kg
  Ps.Ar: 55.3 (5.2)^b,c mm^2/kg
